The values that follow come from patent US20230382863A1, “MEK INHIBITORS AND USES THEREOF” (Ikena Oncology, Inc., priority 2022, published 2023).

The target in series [1] is uMEK/BRAF (Homo sapiens (Human), UniProt Q02750). Description: MEK-RAF Binding Assay (uMEK/BRAF HTRF). (Time-resolved FRET reads energy transfer from a long-lived donor to a nearby acceptor.)
Series [2] deals with Phosphorylation of ERK1/2 in AsPC1 cells. Description: 4 hour pERK1/2 HTRF Assay. The format is cell-based. The following applies: Homo sapiens, ASPC1, read-out: pERK AsPC-1 HTRF (4 hour): Average IC50 (nM); AsPC-1, 4 hour. The method, then:
AsPC1 cells were seeded at 20,000 cells/well overnight in 96-well plates, then treated with a 12-point dose response of compounds (Starting dose of 3000 nM and 3-fold dilution) for 4 hours. AsPC1 cells are a K-Ras mutant cell line. Phosphorylation of ERK1/2 on residues Thr202 and Tyr204 were detected using a Homogenous Time-Resolved Fluorescence (HTRF) assay (Cisbio Cat #64ERKPEG). Briefly, ERK phosphorylation was detected using a sandwich assay format using two phospho-ERK specific antibodies, one labelled with EU^3+-Cryptate (donor) and the second with d2 (acceptor). The Fluorescence Resonance Energy Transfer (FRET) towards the d2 acceptor was detected at a wavelength of 665 nm. ERK1/2 phosphorylation levels were normalized to total ERK1/2 protein levels in each well. IC50 values were determined by fitting a variable slope, four parameters curve to the compound concentration to normalized Phospho-ERK1/2 relationship.

Series [3] can be described thus: Cassette pharmacokinetics studies in mice. It is filed as in vivo. Particulars: male, Balb/c, plasma; Mouse, PO, 5 mg/kg. As to the method: Pharmacokinetics studies were conducted using cassette dosing protocols, with test compounds administered per mouse. Treatment groups were 3 mice (˜6-8 weeks old, ˜20-30 g Balb/c male mice) per route of administration. Compounds were formulated in 5% DMSO and 95% PEG400 with final concentrations of 0.5 mg/mL for IV and PO dosing. Compounds were dosed at 2 mg/kg for IV dosing and 5 mg/kg for PO dosing. Blood samples were withdrawn at 0.083, 0.25, 0.5, 1.0, 2.0, 4.0, 6.0, 8.0, and 24 hours following IV dosing, and 0.25, 0.5, 1.0, 2.0, 4.0, 6.0, 8.0, and 24 hours following PO dosing. Blood samples were centrifuged at 4,000 g for 5 minutes at 4° C. to obtain plasma samples. Plasma samples were diluted with acetonitrile containing internal standard, vortexed for 30 seconds, then centrifuged at 4,000 rpm for 15 minutes at 4° C. The supernatant was diluted with water, and compound concentration was determined by HPLC/MS/MS compared to calibration standards of 0.5-1,000 ng/mL.
Where route is listed as “IV*”, the compound was dosed IV at 1 mg/kg.

Consider `CNS(=O)(=O)Nc1c(F)ccc(Oc2c(C(=O)NC3CC3)c(Nc3ccc(I)cc3F)n(C)c(=O)c2C)c1Cl` [Compound I-38], for which the IC50 in series [1] is < 0.1 µM; in series [2], < 100 nM.

Molecule `CNS(=O)(=O)Nc1cc(C)cc(Oc2c(C(=O)NC3CC3)c(Nc3ccc(I)cc3F)n(C)c(=O)c2C)c1` [Compound I-21] showed an IC50 in series [1] of 0.1 to 1 µM.

Take `CCN(C)S(=O)(=O)Nc1cccc(Oc2c(C(=O)NC3CC3)c(Nc3ccc(I)cc3F)n(C)c(=O)c2C)c1Cl` [Compound I-111]: in series [2], the IC50 is < 100 nM.

For `CCn1c(Nc2ccc(I)cc2F)c(C(=O)NC2CC2)c(Oc2cccc(NS(=O)(=O)NC)c2Cl)c(C2CC2)c1=O` [Compound I-117], the IC50 in series [2] was 1000 to 10000 nM.

For the molecule `CNS(=O)(=O)Nc1cccc(Nc2c(C(=O)OC3CC3)c(Nc3ccc(I)cc3F)n(C)c(=O)c2C)c1Cl` [Compound I-47], in series [2], the IC50 was < 100 nM.

Regarding `Cc1c(Oc2cccc(N)c2Cl)c(C(=O)NC2CC2)c(Nc2ccc(I)cc2F)n(C)c1=O` [Compound I-86], the IC50 in series [1] is < 0.1 µM; in series [2] it was < 100 nM.

Take `CNS(=O)(=O)N(CC(F)(F)F)c1cccc(Oc2c(C(=O)NC3CC3)c(Nc3ccc(I)cc3F)n(C)c(=O)c2C)c1Cl` [Compound I-97]: in series [2], the IC50 lay in the range of 100 to 1000 nM.

As for `Cc1c(Oc2cccc(NS(=O)(=O)N(C)C)c2Cl)c(C(=O)NC2CC2)c(Nc2ccc(I)cc2F)n(C)c1=O` [Compound I-113], the IC50 in series [2] was < 100 nM.

`CNS(=O)(=O)Nc1ccc(Oc2c(C(=O)NC3CC3)c(Nc3ccc(I)cc3F)n(C)c(=O)c2C)cc1` [Compound I-64] came in with a half-inhibitory concentration (IC50) in series [1] of 0.1 to 1 µM. The IC50 in series [2] was 100 to 1000 nM. For the same molecule, in series [3], the AUC(0-inf) turned out to be 0.505 µg·h/mL, the AUC(0-t) turned out to be 0.492 µg·h/mL, the Cmax was determined as 0.231 µg/mL and the Tmax stood at 0.8 h. In addition, the half-life in series [3] was 2.1 h.

Take `Cc1c(Oc2cccc(N(CC(F)(F)F)S(=O)(=O)NC3CC3)c2Cl)c(C(=O)NC2CC2)c(Nc2ccc(I)cc2F)n(C)c1=O` [Compound I-95]: the IC50 in series [2] is < 100 nM.

With `CCc1c(Oc2cccc(NS(=O)(=O)NC)c2Cl)c(C(=O)NC2CC2)c(Nc2ccc(I)cc2F)n(C2CC2)c1=O` [Compound I-120], the IC50 in series [2] was in the range of 1000 to 10000 nM.

Consider `CNS(=O)(=O)Nc1cccc(Oc2c(C(=O)NCC[C@@H](O)CO)c(Nc3ccc(I)cc3F)n(C)c(=O)c2C)c1Cl` [Compound I-119], for which, in series [2], the IC50 was < 100 nM.

On to `CNS(=O)(=O)Nc1cccc(Oc2c(C(=O)NC3CC3)c(Nc3ccc(I)cc3F)n(C)c(=O)c2C)c1Cl` [Compound I-109], for which, in series [2], the IC50 was < 100 nM.

With `CNS(=O)(=O)Nc1cccc(Oc2c(C(=O)NCC3CC3)c(Nc3ccc(I)cc3F)n(C)c(=O)c2C)c1Cl` [Compound I-39], the results for the IC50 in series [1] and in series [2] were < 0.1 µM and < 100 nM, respectively.

On to `CNS(=O)(=O)Nc1cc(Oc2c(C(=O)NC3CC3)c(Nc3ccc(I)cc3F)n(C)c(=O)c2C)ccc1Cl` [Compound I-19], for which, in series [1], the IC50 was 0.1 to 1 µM.

As to `CNS(=O)(=O)Nc1ccnc(Oc2c(C(=O)NC3CC3)c(Nc3ccc(I)cc3F)n(C)c(=O)c2C)c1OC` [Compound I-115], the IC50 in series [2] was < 100 nM.

As for `Cc1c(Oc2cccc(NS(=O)(=O)N3CC(F)C3)c2Cl)c(C(=O)NC2CC2)c(Nc2ccc(I)cc2F)n(C)c1=O` [Compound I-107], the half-maximal inhibitory concentration (IC50) in series [2] was < 100 nM.

Regarding `Cc1c(Oc2cccc(NS(=O)(=O)N(C)C)c2Cl)c(C(=O)NCC(F)(F)F)c(Nc2ccc(I)cc2F)n(C)c1=O` [Compound I-105], the IC50 in series [2] was < 100 nM.

With `Cc1c(Oc2cccc(NS(=O)(=O)N3CCC3)c2C(F)(F)F)c(C(=O)NC2CC2)c(Nc2ccc(I)cc2F)n(C)c1=O` [Compound I-103], the IC50 in series [2] was < 100 nM.

For the molecule `CNS(=O)(=O)Nc1cccc(Oc2c(C(=O)NC3CC3)c(Nc3ccc(I)cc3F)n(C)c(=O)c2C)c1C(F)(F)F` [Compound I-37], in series [3], the AUC(0-inf) was found to be 12.9 µg·h/mL, the AUC(0-t) came out at 12.9 µg·h/mL, the Cmax turned out to be 1.73 µg/mL and the Tmax came to 1.7 h. Also, the half-life in series [3] is 1.99 h.

On to `CCN(CC)S(=O)(=O)Nc1cccc(Oc2c(C(=O)NC3CC3)c(Nc3ccc(I)cc3F)n(C)c(=O)c2C)c1Cl` [Compound I-110], for which the IC50 in series [2] is < 100 nM.

As for `Cc1c(Oc2cccc(N(C)S(=O)(=O)NC3CC3)c2Cl)c(C(=O)NC2CC2)c(Nc2ccc(I)cc2F)n(C)c1=O` [Compound I-99], in series [2], the IC50 is < 100 nM.

As for `CNS(=O)(=O)Nc1ccnc(Oc2c(C(=O)NC3CC3)c(Nc3ccc(I)cc3F)n(C)c(=O)c2C)c1Cl` [Compound I-93], in series [2], the IC50 was < 100 nM.

As to `CNS(=O)(=O)Nc1cccc(Oc2c(C(=O)NCC[C@H](O)CO)c(Nc3ccc(I)cc3F)n(C)c(=O)c2C)c1Cl` [Compound I-118], the half-maximal inhibitory concentration (IC50) in series [2] was < 100 nM.

With `Cc1c(Oc2cccc(NS(N)(=O)=O)c2Cl)c(C(=O)NC2CC2)c(Nc2ccc(I)cc2F)n(C)c1=O` [Compound I-112], the IC50 in series [2] is < 100 nM. Further, in series [3], the AUC(0-inf) was determined as 5.83 µg·h/mL, the AUC(0-t) stood at 5.37 µg·h/mL, the highest level (Cmax) was 0.979 µg/mL and the Tmax was 1.3 h. Further, in series [3], the half-life is 2.27 h.

For the molecule `CCN(c1cccc(Oc2c(C(=O)NC3CC3)c(Nc3ccc(I)cc3F)n(C)c(=O)c2C)c1Cl)S(=O)(=O)NC1CC1` [Compound I-98], in series [2], the IC50 is 100 to 1000 nM.

For `CNS(=O)(=O)Nc1ccc(Oc2c(C(=O)NC3CC3)c(Nc3ccc(I)cc3F)n(C)c(=O)c2C)c(Cl)c1` [Compound I-63], the IC50 lay within 0.1 to 1 µM in series [1] and 100 to 1000 nM in series [2].

Turning to `CNS(=O)(=O)Nc1cccc(Oc2c(C(=O)NC3CC3)c(Nc3ccc(I)cc3F)n(C)c(=O)c2C)n1` [Compound I-96], the IC50 in series [2] is 100 to 1000 nM.

As to `Cc1c(Oc2cccc(NS(=O)(=O)N(C)C3CC3)c2Cl)c(C(=O)NC2CC2)c(Nc2ccc(I)cc2F)n(C)c1=O` [Compound I-102], the IC50 in series [2] is < 100 nM.

In the case of `CNS(=O)(=O)Nc1nccc(Oc2c(C(=O)NC3CC3)c(Nc3ccc(I)cc3F)n(C)c(=O)c2C)c1Cl` [Compound I-121], in series [2], the half-inhibitory concentration (IC50) is < 100 nM.

Consider `CNS(=O)(=O)Nc1cncc(Oc2c(C(=O)NC3CC3)c(Nc3ccc(I)cc3F)n(C)c(=O)c2C)c1OC` [Compound I-116], for which the IC50 in series [2] fell in the range of 1000 to 10000 nM.

Turning to `CNS(=O)(=O)Nc1cncc(Oc2c(C(=O)NC3CC3)c(Nc3ccc(I)cc3F)n(C)c(=O)c2C)c1Cl` [Compound I-122], the concentration for half-maximal inhibition (IC50) in series [2] is 100 to 1000 nM.

As for `CNS(=O)(=O)Nc1cccc(Oc2c(C(=O)N3CCC3)c(Nc3ccc(I)cc3F)n(C)c(=O)c2C)c1Cl` [Compound I-79], the IC50 in series [1] is 0.1 to 1 µM; in series [2], < 100 nM.

For the molecule `Cc1c(Oc2cccc(NS(=O)(=O)N3CC(F)C3)c2Cl)c(C(=O)NCC(F)(F)F)c(Nc2ccc(I)cc2F)n(C)c1=O` [Compound I-104], the IC50 in series [2] is < 100 nM.

Turning to `CNS(=O)(=O)n1ccc2ccc(Oc3c(C(=O)NC4CC4)c(Nc4ccc(I)cc4F)n(C)c(=O)c3C)cc21` [Compound I-78], the half-inhibitory concentration (IC50) was in the range of 0.1 to 1 µM in series [1] and 1000 to 10000 nM in series [2].

`Cc1c(Oc2cccc(NS(=O)(=O)N3CCC3)c2Cl)c(C(=O)NCC(F)(F)F)c(Nc2ccc(I)cc2F)n(C)c1=O` [Compound I-106]: the IC50 in series [2] was < 100 nM.

“N-cyclopropyl-4-((2,2-dioxido-3,4-dihydro-1H-benzo[c][1,2,6]thiadiazin-7-yl)oxy)-2-((2-fluoro-4-iodophenyl)amino)-1,5-dimethyl-6-oxo-1,6-dihydropyridine-3-carboxamide [Compound I-14]” came in with a 50% inhibitory concentration (IC50) in series [1] of 0.1 to 1 µM.

As to `CCc1c(Oc2cccc(NS(=O)(=O)NC)c2Cl)c(C(=O)NC2CC2)c(Nc2ccc(I)cc2F)n(C)c1=O` [Compound I-92], the IC50 in series [2] fell in the range of 100 to 1000 nM.

Regarding `Cc1c(Oc2cccc(NS(=O)(=O)N3CCC3)c2Cl)c(C(=O)NC2CC2)c(Nc2ccc(I)cc2F)n(C)c1=O` [Compound I-108], in series [2], the IC50 is < 100 nM.

Regarding `CNS(=O)(=O)N(C)c1cccc(Oc2c(C(=O)NC3CC3)c(Nc3ccc(I)cc3F)n(C)c(=O)c2C)c1Cl` [Compound I-100], the IC50 in series [2] was < 100 nM.

As for `CCN(C1CC1)S(=O)(=O)Nc1cccc(Oc2c(C(=O)NC3CC3)c(Nc3ccc(I)cc3F)n(C)c(=O)c2C)c1Cl` [Compound I-101], the half-inhibitory concentration (IC50) in series [2] is < 100 nM.

`Cc1c(Oc2cccc(N(C3CC3)S(=O)(=O)NC3CC3)c2Cl)c(C(=O)NC2CC2)c(Nc2ccc(I)cc2F)n(C)c1=O` [Compound I-94]: the half-inhibitory concentration (IC50) in series [2] is 100 to 1000 nM.

`CNS(=O)(=O)Nc1cccc(Oc2c(C(=O)N(C)C3CCC3)c(Nc3ccc(I)cc3F)n(C)c(=O)c2C)c1` [Compound I-133]: in series [3], the AUC(0-inf) was 0.028 µg·h/mL, the AUC(0-t) is 0.027 µg·h/mL, the Cmax was found to be 0.0412 µg/mL and the Tmax was found to be 0.2 h. Further, the half-life in series [3] was 0.4 h.

A word on the IC50: it is the concentration that inhibits the measured activity by half. By AUC(0-inf) is commonly meant total exposure, with the tail of the curve extrapolated. In general, AUC(0-t) refers to the area under the concentration-time curve up to a stated or last time point. Low readings indicate low exposure, high ones high exposure. What is called Cmax is the peak of the concentration-time curve. The Tmax is the time from dosing to the highest level. For orientation: half-life means how long it takes for the measured level to halve. High values mean slow loss, low ones fast loss.
